Laboratory results from patent US7989496B2, “Transdermal delivery of ketoprofen polar derivatives” (Noven Pharmaceuticals, Inc., priority 2006, dated 2011).

Test: Human cadaver skin permeation study in modified Franz diffusion cells
Conditions: for 72 hr Cumulative Permeation: drug-in-adhesive formulation, human cadaver stratum corneum, Franz cells, 32° C.; for transdermal delivery rate compared with ketoprofen: previous work by the inventor on non-polar ketoprofen derivatives; for delivery rate (average flux through cadaver skin), FIG. 2: ketoprofen, polar and non-polar derivatives

| Structure (SMILES) | 72 hr Cumulative Permeation | transdermal delivery rate compared with ketoprofen | skin permeation over 72 hours (over 72 hours) | delivery rate (average flux through cadaver skin), FIG. 1 (non-polar ketoprofen derivatives, approximate 84 hour time period, cadaver skin in Franz cells) | delivery rate (average flux through cadaver skin), FIG. 2 (cadaver skin in Franz cells) |
| --- | --- | --- | --- | --- | --- |
| CCOC(=O)C(C)c1cccc(C(=O)c2ccccc2)c1 (stereo not shown) [Ketoprofen Ethyl Ester] | 170 µg/cm² | lower delivery rates than ketoprofen |  |  |  |
| CC(C(=O)OCC(O)CO)c1cccc(C(=O)c2ccccc2)c1 (stereo not shown) [Ketoprofen Monoglycerol Ester] | 214 µg/cm² |  |  |  | faster delivery rate than each of the non-polar ester derivatives tested |
| CC(C(=O)O)c1cccc(C(=O)c2ccccc2)c1 (stereo not shown) [Ketoprofen, 2-(3-benzoyl-phenyl)-propionic acid] |  |  | about 1110 μg/cm^2 |  | highest delivery rate |

Further lines, with some results ahead:

| 72 hr Cumulative Permeation | transdermal delivery rate compared with ketoprofen | skin permeation over 72 hours (over 72 hours) | Structure (SMILES) | delivery rate (average flux through cadaver skin), FIG. 1 (non-polar ketoprofen derivatives, approximate 84 hour time period, cadaver skin in Franz cells) | delivery rate (average flux through cadaver skin), FIG. 2 (cadaver skin in Franz cells) |
| --- | --- | --- | --- | --- | --- |
|  | lower delivery rates than ketoprofen |  | COC(=O)C(C)c1cccc(C(=O)c2ccccc2)c1 (stereo not shown) [methyl ester of ketoprofen] | faster delivery rate than each of the ethyl ester and isopropyl ester |  |
| 61.2 µg/cm² | lower delivery rates than ketoprofen |  | CC(C)OC(=O)C(C)c1cccc(C(=O)c2ccccc2)c1 (stereo not shown) [Ketoprofen Isopropyl Ester] |  |  |
